Results on one compound are retold here after article PMC5654414, “In vitro and in vivo comparative and competitive activity-based protein profiling of GH29 α-L-fucosidases” (Chemical Science, 2015).

For assay [1], the target named is T1, recombinant human FUCA1 (human lysosomal α-L-fucosidase) (Homo sapiens, UniProt P04066).
T1 construct: expressed in transfected cells; host or cells: COS-7
T1 sequence (P04066 32-466): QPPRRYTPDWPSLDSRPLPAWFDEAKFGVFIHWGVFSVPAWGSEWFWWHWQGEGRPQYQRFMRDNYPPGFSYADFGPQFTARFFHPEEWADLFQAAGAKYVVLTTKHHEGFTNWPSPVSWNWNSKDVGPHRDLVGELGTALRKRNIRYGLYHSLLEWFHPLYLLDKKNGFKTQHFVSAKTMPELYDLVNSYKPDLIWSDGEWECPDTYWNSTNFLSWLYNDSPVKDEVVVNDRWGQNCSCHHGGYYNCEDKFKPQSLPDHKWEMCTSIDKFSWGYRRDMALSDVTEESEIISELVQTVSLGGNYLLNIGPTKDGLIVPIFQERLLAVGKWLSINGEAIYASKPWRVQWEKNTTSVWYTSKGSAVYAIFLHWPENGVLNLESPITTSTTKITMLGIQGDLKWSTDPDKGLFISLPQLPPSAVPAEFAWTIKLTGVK
Put plainly: In vitro inhibition of FUCA1 activity, 4-methylumbelliferyl-α-L-fucopyranoside substrate, lysates of COS-7 cells over-expressing enzyme. It is filed as biochemical. On the procedure: Having the cyclophellitol aziridine inhibitors and probes in hand, we determined their inhibitory potency towards the human lysosomal α-L-fucosidase, FUCA1.
The enzymatic activity of α-L-fucosidase was assayed at 37 °C by incubating with 1.5 mM 4-methylumbelliferyl-α-L-fucopyranoside as substrate in 150 mM McIlvaine buffer, pH 4.5, supplemented with 0.1% (w/v) BSA. […] The reaction was quenched by adding excess NaOH–glycine (pH 10.6), after which fluorescence was measured with a fluorimeter LS55 (Perkin Elmer) using λEX 366 nm and λEM 445 nm.

Assay [2] has as its target T2, FUCA1 (Homo sapiens, UniProt P04066).
T2 sequence (P04066 32-466): T1 sequence (P04066 32-466)
The assay is described as follows: ABP pulldown from Gaucher spleen lysate and LC-MS/MS identification. It is filed as binding. Further details: lysates of spleens from a healthy human individual and a patient suffering from Gaucher disease; from tissue; host or cells: human spleen (normal subject and type 1 Gaucher patient). Conditions: 10 μM pre-incubation followed by 10 μM ABP 3. On the procedure:
To further determine the specificity of the developed ABPs, we have analyzed the ABP-labeled proteins in a complex tissue homogenate. For this purpose, we incubated Gaucher spleen lysate with biotinylated ABP 3 or with DMSO only (control) or competitive ABP 3-labeling by first incubating with fluorescent ABP 1. Glycosylated proteins were then enriched via ConA, followed by affinity purification with streptavidin coated paramagnetic beads. The identity of biotinylated and ABP 3-labeled proteins was determined by on-bead digestion with trypsin, peptide analysis by LC-MS/MS and matching against the human UniProt database, using the Mascot search engine as previously reported.[14] […]
Gaucher spleen lysate (1 g) was cut with a sterile scalpel, mixed with 4 mL 25 mM potassium phosphate buffer (pH 6.5, supplemented with 0.1% (v/v) Triton X-100 and protease inhibitor cocktail (Roche)) and sonicated three times for 10 seconds at 100% strength and kept on ice. […] Lysate was then centrifuged for 10 min at 10 000 g, supernatant collected carefully, protein concentration determined and […] total protein was then incubated with either 0.1% (v/v) DMSO, ABP 1 or ABP 3, or firstly with 10 μM ABP 1 followed by 10 μM of ABP 3, each step taking 30 min at 37 °C, in a total volume of 1 mL McIlvaine buffer, pH 4.5. […]

For assay [3], the target named is T2, FUCA1. The assay is described as follows: Fluorescent labeling kinetics, time course on SDS-PAGE. It counts as binding. Further details: expressed in transfected cells; host or cells: COS-7. Particulars: 10 nM probe, stoichiometric rhFUCA1, 4 °C. An excerpt:
This rapid reaction with both 1 and 2 also precluded a classic determination of kinetic constants following a time-dependent decrease in detectable 4-methylumbelliferone (ESI Fig. S5b ^†).
Fig. S4. In vitro pH profile of recombinant FUCA1. A) In vitro labeling of COS-7 cell lysate containing over-expressed human FUCA1 at various pH with ABP 1. B) Relative in vitro labeling of FUCA1 with ABP 1 (closed squares) compared to relative enzymatic activity towards artificial 4-methylumbelliferyl-α-L-fucopyranoside substrate (open circles) at various pH. Data average of n = 3 experiments, ± standard deviation.
Fig. S5. In vitro inhibition kinetics of ABPs 1 and 2 towards recombinant human FUCA1. A) Stoichiometric in situ labeling of COS-7 lysate containing over-expressed human FUCA1 with 10 nM ABP 1 at 4°C and 37°C. B) Plots of Kobserved against the concentration of ABP 1 and 2. Rates determined through direct kinetic measurements of liberated 4-methylumbelliferone from 4-methylumbelliferyl-α-L-fucopyranoside substrate whilst in the presence of varying concentrations of ABP 1 and 2. […]

Assay [4] has as its target T3, FUCA1 (recombinant human GH29 α-L-fucosidase per table title) (Homo sapiens, UniProt P04066).
T3 construct: endogenous in cells; host or cells: fibroblasts
T3 sequence (P04066 32-466): T1 sequence (P04066 32-466)
Put plainly: In situ inhibition of FUCA1 in living fibroblasts. It is filed as cell-based.

As to `CC1=CC(C)=[N+]2C1=C(CCCCc1cn(CCCCCCCC(=O)N3[C@@H]4[C@@H](C)[C@@H](O)[C@@H](O)[C@H](O)[C@@H]43)nn1)c1c(C)cc(C)n1[B-]2(F)F` [compound 1], the IC50 (in general, the concentration that inhibits the measured activity by half) in assay [1] was determined as 6.9 ± 0.8 nM; in assay [4] it was 28.9 ± 4.4 nM. Also, the “blocking of ABP 3 binding by pre-incubation” value in assay [2] is listed as “completely blocked”. Moreover, the “completeness of labeling over time” value in assay [3] was “near complete within the first minute”.
